Results from patent EP3532040B1, “A PERSONAL CARE COMPOSITION” (Unilever Global IP Limited, priority 2016, dated 2018).

What was measured:
[1] = Color assessment of solutions (L*a*b* color space, Labscan XE, and visual appearance); type: physicochemical; details: 200 µM in ethyl acetate; for b* / L* / a*: 21 °C; for b*: vehicle 1.78; for L*: vehicle 68.79; for a*: vehicle -0.49
Description: Solutions of compound with formula 1 and curcumin were prepared in ethyl acetate (200 µM) and the L*a*b* color space measured at room temperature (21 °C) using a Labscan XE instrument (Hunter Associates Labs Inc., Reston, VA) and processed with Universal Software (version 4.10). […]

[2] = Visual assessment of color of the compound compared with curcumin; type: physicochemical; details: color of the compound itself
Source text: It is desirable that the color of the novel compound of the present invention lies within the colorless to light yellow range for optimum visual appeal and usage in topical and/or skin care compositions. Visual assessment of color from a solid or solution sample of novel compounds in comparison to a solid or solution sample of curcumin provides a means to determine relative reduction of color and appeal potential. In addition, UV-Vis spectra of solution samples of novel compounds in comparison to a solution sample of curcumin provides a means to measure color experimentally and allows a more direct measurement of color. Thus, using these two simple measurements it is possible to assess the relative reduction in color of novel inventive compounds relative to curcumin and allows prioritization of compounds for further development.

THP1-XBlue cells = assay: Anti-inflammation efficacy in THP-1 in vitro assay (LPS-stimulated IL-6 release, ELISA); type: cell-based; details: 24 h, PMA-differentiated cells, LPS alone 10508
Description: THP1-XBlue™ (Cat No: thpx-sp, InvivoGen) cells were cultured as suspense in RPMI 1640 medium supplemented with 10% FBS, penicillin (10 U/mL) - streptomycin (10 µg/ML). Cells were differentiated in 24-well plates at the density of 5 × 10^5 cells / well with 100 nM PMA for 72 h. Cells were then co-treated with pure E. coli lipopolysaccharides (LPS) and with active. After 24 h, the supernatants were collected and measured for interleukin (IL)-6 as pro-inflammatory bio-marker using enzyme-linked immunosorbent assay (ELISA).

[3] = test system: Primary human gingival fibroblasts; assay: Anti-inflammation efficacy in Human Gingival Fibroblasts assay (P. gingivalis-stimulated IL-6, IL-8, MCP-1 release, ELISA); type: cell-based; details: 20 µM active preincubated 2 h, then heat-inactivated P. gingivalis 4 h
Description: Primary human gingival fibroblasts (HGFs, Cat No. 2620, ScienCell™) were cultured in complete fibroblast medium which included 500 mL of basal medium, 10 mL of fetal bovine serum (FBS), 5 mL of fibroblast growth supplement, and 5 mL of penicillin/streptomycin solution (Cat No. 2301, ScienCell™). HGFs were seeded in 24 well-plates at the density of 2 × 10^4 cells / well and cultured for 72 h. Cells were preincubated with active for 2 h. After removal of the active medium, the cells were washed with PBS and further treated with heat-inactivated P. gingivalis (Cat. 33277, ATCC). After 4 h, the supernatants were collected and measured for IL-6, IL-8 and monocyte chemoattractant protein (MCP) -1 as pro-inflammatory bio-markers using ELISA.

[4] = Solubility in solvents compared with curcumin; type: physicochemical

Row | SMILES | Appearance (visual appearance of solution) [1] | b* [1] | L* [1] | a* [1] | color [2] | Concentration of IL-6 (THP1-XBlue cells; 10 µM active co-treated with E. coli LPS) | Concentration of IL-6 (THP1-XBlue cells; 20 µM active co-treated with E. coli LPS) | Concentration MCP-1 ([3]; P. gingivalis alone 388) | Concentration IL-6 ([3]; P. gingivalis alone 595) | Concentration IL-8 ([3]; P. gingivalis alone 17100) | solubility in a broad spectrum of solvents [4]
1 | COc1cc(/C=C/C(=O)CC(=O)/C=C/c2ccc(O)c(OC)c2)ccc1O [Curcumin, reference compound] | yellow | 63.88 | 68.53 | -18.66 | orange |  |  |  |  |  | 
2 | COc1cc(C2CC2C(=O)C(C)(C)C(=O)C2CC2c2ccc(O)c(OC)c2)ccc1O (stereo not shown) [compound of formula 1, 1,3-bis(2-(4-hydroxy-3-methoxyphenyl)cyclopropyl)-2,2-dimethylpropane-1,3-dione] | colorless | 2.49 | 68.62 | -0.68 | light yellow | 5591 pg/mL | 2996 pg/mL | 232 pg/mL | 286 pg/mL | 8321 pg/mL | significantly improved solubility
